Test results taken from patent US6673798B2, “PDGF receptor kinase inhibitory compounds, their preparation, purification and pharmaceutical compositions including same” (Yissum Research Development Company of the Hebrew …, priority 1999, dated 2004).

Assays:
porcine SMC = assay: Inhibition of SMC proliferation and recovery (cell count); format: cell-based; settings: 10 μM
Description: Smooth muscle cells (SMC) were obtained under aseptic conditions from porcine abdominal aortas. Each artery was cut open and the endothelial surface mechanically scraped. The vessels were then cut into 2 mm^2 fragments which were placed in culture dishes with Dulbecco's modified Eagle's medium (DMEM) supplemented with 15% (v/v) fetal calf serum (FCS), 100 u/ml penicillin, 100 μg/ml streptomycin, and […]. The tissue fragments were then placed in an incubator at 37° C. under 9% CO2 atmosphere until SMC outgrowth was detected (typically within 3-7 days). […] For experiments testing the effect of tyrphostins on growth inhibition and recovery (see below), SMC from passages 1-3 were replated in 15 mm wells pretreated with 3 μg/cm^2 fibronectin (Biological Industries, Kibbutz Beit Haemek, Israel) at 15,000 cells/well.
Inhibition of cell proliferation and recovery: Monolayer cell growth inhibition and recovery experiments were repeated 3 or 4 times. Each experiment was performed in triplicate. Approximately 15,000 cells (SMC or PAEC) in 1 ml of culture medium supplemented with either 15% FCS (SMC) or 10% FCS (PAEC) were seeded on day 0 in 15 mm-wells precoated with fibronectin (SMC) or uncoated (PAEC). Cultures were treated with 10 μM of the following tyrphostin compounds: AG2033, AC2034, AG2043 and AG2044 (for SMC) or AG2033 (for PAEC) dissolved in 0.1% DMSO on days 1 and 3. On day 7, cultures were washed and the cells allowed to recover. Typically cells were counted on days 3 and 6 for inhibition, and on day 13 for recovery. The medium supplemented with serum (DMEM for SMC and Ham's F12 for PAEC) was changed every other day throughout the experiment.
Cells were grown in the presence of the specified tyrphostins and were counted on days 3, 6 and 13 in culture. On day 7 the cultures were washed and the cells allowed to recover. […] The inhibitory effect of all three compounds was reversible, and the cells resumed normal growth response as soon as the treatment with the tyrphostins was withdrawn.

PAEC/PDGFR cells [1] = assay: Proliferation of PDGFβR transfected PAEC cells ([3H]thymidine incorporation); format: cell-based, porcine; settings: Sus scrofa, read-out: IC50 (50% inhibition of proliferation) PDGFβR
Description: (§1) Porcine aortic endothelial cells (PAEC), stably transfected with either PDGF-receptor (PAEC/PDGFβR cells, kindly provided by Dr. L. Claesson-Welsh, Uppsala, Sweden) or VEGF-receptor KDR (PAEC/KDR), respectively, were used as previously described. Cells were routinely cultured in Ham's F-12 medium supplemented with geneticin (0.4 mg/ml) and 10% FCS.
(§2) Assessment of cell proliferation ([^3H]thymidine incorporation assay): PAEC/KDR and PAEC/PDGFR cells, grown in Ham's F12 medium containing 10% FCS were seeded sparsely in 12 well culture dishes. After 24 hours, cells were washed two times with Ham's F12 medium containing 1% FCS and incubated for additional 48 hours with one renewal of medium. Cells were incubated for 15 minute with different concentrations of AG2033 (0.1; 1 and 10 μM) or with the solvent DMSO alone, stimulated with 3 ng/ml VEGF or with 15 ng/ml PDGF-BB for 20 hours, followed by addition of 0.25 μCi of [^3H]-thymidine/ml (Amersham) for two hours. High molecular weight [^3H]-radioactivity was precipitated using 5% trichloroacetic acid at 4° C. for 30 minutes. After two washes with ice-cold H2O, [^3H]-radioactivity was solubilized in 1 M NaOH (400 μl/well) at room temperature for 8 minutes, neutralized by the addition of 2 M HCL (400 μl/well), and quantitated by liquid scintillation counting. […]

PDGFβR = target: T1, PDGFβR (Mus musculus, UniProt P05622); assay: PDGF-induced PDGFβR autophosphorylation in intact Swiss 3T3 cells (FIG. 8); format: cell-based; settings: at 1 μM
T1 construct: A preparation of purified PDGFR from Swiss 3T3 cell membranes was used; endogenous in cells
Description: Kinase reactions, using an isolated PDGFβR preparation, in the presence of 0.03-3 μM tyrphostin, were conducted, utilizing [γ-^32P]ATP as probe. Densitometric evaluation, relative to control lacking the tyrphostin inhibitor (100%), results in the percent autokinase activity, presented in Table 8 and in the dose-response curves for the purified transoid isomers AG2033 (FIG. 6) and AG2043 (FIG. 7). Further comparison between the resulting autoradiogrms for each pair of geometrical isomers AG2033 and AG2034 (upper panel); AG2043 and AG2044 (lower panel), for their inhibitory activity towards PDGF-induced PDGFβR autophosphorylation (concentration range: 0.1-10 μM) in intact cells is presented in FIG. 8. […] Similar potency relation exists between the AG2043 and AG2044 isomers.

PAEC/KDR cells [2] = assay: Migration of KDR transfected PAEC cells toward VEGF (Boyden chamber); format: cell-based, porcine; settings: Sus scrofa, VEGF 10 ng/ml, read-out: IC50 (50% inhibition of migration) KDR
Description: (§3) Assessment of cell migration (Chemotaxis assay): The chemotactic response of HCASMC, PAEC/KDR and PAEC/PDGFR cells was assessed using the modified Boyden chamber (Neuro Probe, Inc.) and collagen-coated polycarbonate filters (Nucleopore) with pore diameters of 8 μm as previously described. Briefly, PAEC/KDR and PAEC/PDGFR cells were cultivated and assayed in Ham's F12 medium containing 10% FCS. HCASMC were cultivated in SmGM-2 (clonetics) and assayed in SmBM-WM containing 10% FCS and 0.1% BSA. To the medium in the lower part of the Boyden chamber, either VEGF or PDGF-BB (10 ng/ml, respectively) were added. AG2033 was added to both upper and lower chamber parts. Suspended cells were given 4 hours for migration, after a preincubation period of 15 minute in AG2033. The number of cells that migrated without PDGF-BB or VEGF stimulation was referred to as 100% migration (chemokinesis). The assay was performed in triplicate, and five medium-power fields were counted per well using a light microscope (Jenalab).
(§4) Evaluation of PDGFβR or KDR stably transfected PAEC cells migration toward the respective growth factors, PDGD-BB and VEGF (10 ng/ml, respectively), in the presence of the purified AG2033 isomer, was conducted in a Boyden chamber (see experimental section, above). […]

PAEC/PDGFR cells [3] = assay: Migration of PDGFβR transfected PAEC cells toward PDGF-BB (Boyden chamber); format: cell-based, porcine; settings: Sus scrofa, PDGF-BB 10 ng/ml, read-out: IC50 (50% inhibition of migration) PDGFβR
Description: as §3, §4

PAEC/KDR cells [4] = assay: Proliferation of KDR transfected PAEC cells ([3H]thymidine incorporation); format: cell-based, porcine; settings: Sus scrofa, read-out: IC50 (50% inhibition of proliferation) KDR
Description: as §1, §2

T1 sequence (P05622 32-1098): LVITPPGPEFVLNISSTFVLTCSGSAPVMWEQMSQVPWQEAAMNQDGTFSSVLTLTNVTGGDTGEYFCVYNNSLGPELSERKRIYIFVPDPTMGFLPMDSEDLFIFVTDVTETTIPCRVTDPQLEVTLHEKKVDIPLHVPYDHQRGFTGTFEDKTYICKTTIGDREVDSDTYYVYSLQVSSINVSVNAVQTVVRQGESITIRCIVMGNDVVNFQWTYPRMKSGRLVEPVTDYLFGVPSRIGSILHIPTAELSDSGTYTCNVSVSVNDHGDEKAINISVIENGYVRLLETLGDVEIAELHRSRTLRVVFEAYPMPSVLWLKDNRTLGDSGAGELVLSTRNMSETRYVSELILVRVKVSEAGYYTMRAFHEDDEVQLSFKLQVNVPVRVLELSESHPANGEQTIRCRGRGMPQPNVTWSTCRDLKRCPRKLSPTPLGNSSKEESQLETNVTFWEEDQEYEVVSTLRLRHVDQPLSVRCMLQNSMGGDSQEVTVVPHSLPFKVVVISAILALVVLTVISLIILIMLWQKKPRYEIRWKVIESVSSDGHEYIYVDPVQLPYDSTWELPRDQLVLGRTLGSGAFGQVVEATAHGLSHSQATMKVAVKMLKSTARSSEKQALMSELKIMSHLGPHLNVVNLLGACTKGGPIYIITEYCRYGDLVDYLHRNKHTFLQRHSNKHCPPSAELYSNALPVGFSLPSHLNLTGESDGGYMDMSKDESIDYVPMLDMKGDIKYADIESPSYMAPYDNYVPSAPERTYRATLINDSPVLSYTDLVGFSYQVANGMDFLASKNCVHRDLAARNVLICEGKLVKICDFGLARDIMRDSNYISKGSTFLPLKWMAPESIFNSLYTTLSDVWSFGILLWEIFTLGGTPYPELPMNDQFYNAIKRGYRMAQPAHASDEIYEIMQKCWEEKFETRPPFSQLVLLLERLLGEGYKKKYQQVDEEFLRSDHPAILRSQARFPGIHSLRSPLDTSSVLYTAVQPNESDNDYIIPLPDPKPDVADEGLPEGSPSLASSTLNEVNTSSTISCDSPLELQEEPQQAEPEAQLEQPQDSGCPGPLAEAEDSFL

inhibitory activity towards PDGF-induced PDGFβR autophosphorylation in intact cells (PDGFβR)	melting point	IC50 (PAEC/KDR cells [2])	IC50 (PAEC/PDGFR cells [3])	SMILES	toxic effect on the cells (porcine SMC; SMC)	mean reduction in SMC count by day 3 (porcine SMC; compared to DMSO treated control cells)	reversibility of the inhibitory effect on SMC proliferation (porcine SMC; cultures washed on day 7, recovery counted day 13)	IC50 (PAEC/PDGFR cells [1])	IC50 (PAEC/KDR cells [4])
–	–	–	–	Cc1nc2cc3nc(-c4cccs4)cnc3cc2n1C [AG2043, 1,2-dimethyl-6-(2-thiophene) imidazolo[5,4-g]quinoxaline]	without having a substantial toxic effect	46%	completely reversible	–	–
marked inhibitory activity	275 °C	> 10 µM	5 µM	Cc1nc2cc3nc(-c4ccccc4)cnc3cc2n1C [AG2033, 1,2-dimethyl-6-phenyl imidazolo[5,4-g]quinoxaline]	–	–	–	2.5 µM	> 10 µM
